According to patent EP4775568A1, “NOVEL COMPOUND AND USE THEREOF FOR TREATING PSORIASIS” (Gwangju Institute of Science and Technology, priority 2023, dated 2025):
pIC50: −log10 of the molar value.

molecular target: T1, CMKLR1 (Homo sapiens, UniProt Q99788); experiment: Calcium mobilization assay (CHO-Ga16-CMKLR1 cells, chemerin-9 induced signal); format: cell-based; conditions: Table 2, IC50 class, calcium signal induced by 2.5 nM chemerin-9
T1 construct: expressed in transfected cells; host or cells: CHO-K1 cells expressing Gα-16 (CHO-Ga16-CMKLR1)
T1 sequence (Q99788 1-373): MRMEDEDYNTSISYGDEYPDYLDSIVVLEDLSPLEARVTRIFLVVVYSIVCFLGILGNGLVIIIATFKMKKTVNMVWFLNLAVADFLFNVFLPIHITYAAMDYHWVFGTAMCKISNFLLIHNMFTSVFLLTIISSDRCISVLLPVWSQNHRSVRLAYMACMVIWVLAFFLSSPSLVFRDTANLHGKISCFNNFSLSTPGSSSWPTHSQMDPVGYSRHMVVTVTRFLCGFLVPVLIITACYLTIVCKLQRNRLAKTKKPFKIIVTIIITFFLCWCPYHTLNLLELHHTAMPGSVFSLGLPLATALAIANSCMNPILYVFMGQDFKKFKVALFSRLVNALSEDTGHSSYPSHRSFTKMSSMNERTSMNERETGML
Method: To establish a CMKLR1 calcium mobilization cell evaluation system, CHO-K1 cells expressing Gα-16 were transfected with pcDNA3.1-derived human CMKLR1-expressing plasmids using Lipofectamine 2000 (Invitrogen, Waltham, Massachusetts, USA). […] The established cell line (CHO-Ga16-CMKLR1) was cultured in F-12 medium (Invitrogen) supplemented with 10% (v/v) fetal bovine serum (FBS; Invitrogen), 0.5 mg/mL geneticin, 0.2 mg/mL hygromycin B (Clontech), and 1% (v/v) antibiotic-antimycotic solution (Invitrogen) under 5% CO2 at 37°C.
100 µL/well was added to a 96-well plate (Corning) and incubated for 24 h. The buffer solution was prepared by adding 1 M HEPES solution to Hanks' Balanced Salt Solution (HBSS) (Invitrogen) and adjusting the pH to 7.4 by dropwise addition of 1 M NaOH.
The fluorescent dye solution was prepared using the buffer provided with the Calcium 5 Assay Kit (Molecular Devices). 40 µL/well of dye solution was added to each well and incubated at 37°C in a 5% CO2 atmosphere for 30 min. […] The final DMSO concentration was adjusted to 2%. 40 µL of each compound solution was added to the well and incubated for 30 min. […] Prism 5 software (GraphPad) was then used to obtain IC50 values for various compounds. IC50 values were derived based on concentration-response curves, and all experiments were repeated at least three times.

| Compound | pIC50 |
| --- | --- |
| CC(CC(=O)O)c1ccc(OCc2ccc3c(-c4cc(Cl)c(O)c(Cl)c4)nn(C4CCCC4)c3c2)cc1 (stereo not drawn) [Compound 20, 3-(4-((1-cyclopentyl-3-(3,5-dichloro-4-hydroxyphenyl)-1H-indazol-6-yl)methoxy)phenyl)butanoic acid] | 6.00 to 7.00 |
| CC(CC(=O)O)c1ccc(OCc2ccc3c(-c4ccc(Cl)cc4)nn(C4CCCC4)c3c2)cc1 (stereo not drawn) [Compound 18, 3-(4-((3-(4-chlorophenyl)-1-cyclopentyl-1H-indazol-6-yl)methoxy)phenyl)butanoic acid] | < 6.00 |
| COc1ccc(-c2nn(C3CCCC3)c3cc(COc4ccc(C(C)CC(=O)O)cc4)ccc23)cc1 (stereo not drawn) [Compound 15, 3-(4-((1-cyclopentyl-3-(4-methoxyphenyl)-1H-indazol-6-yl)methoxy)phenyl)butanoic acid] | < 6.00 |
| CC(CC(=O)O)c1ccc(OCc2ccc3c(-c4cc5ccccc5s4)nn(C4CCCC4)c3c2)cc1 (stereo not drawn) [Compound 25, 3-(4-((3-(benzo[b]thiophen-2-yl)-1-cyclopentyl-1H-indazol-6-yl)methoxy)phenyl)butanoic acid] | < 6.00 |
| CCC(CC)Oc1ccc(-c2nn(C3CCCC3)c3cc(COc4ccc(C(C)CC(=O)O)cc4)ccc23)cc1 (stereo not drawn) [Compound 27, 3-(4-((1-cyclopentyl-3-(4-(pentan-3-yloxy)phenyl)-1H-indazol-6-yl)methoxy)phenyl)butanoic acid] | < 6.00 |
| CC(CC(=O)O)c1ccc(OCc2ccc3c(-c4cccc5ccccc45)nn(C4CCCC4)c3c2)cc1 (stereo not drawn) [Compound 26, 3-(4-((1-cyclopentyl-3-(naphthalen-1-yl)-1H-indazol-6-yl)methoxy)phenyl)butanoic acid] | < 6.00 |

same assay, conditions: Table 3, IC50 class, calcium signal induced by 2.5 nM chemerin-9

| Compound | pIC50 |
| --- | --- |
| C=CCOc1ccc(-c2nn(C3CCCC3)c3cc(COc4ccc(C(C)CC(=O)O)cc4)ccc23)cc1 (stereo not drawn) [Compound 30, 3-(4-((3-(4-(allyloxy)phenyl)-1-cyclopentyl-1H-indazol-6-yl)methoxy)phenyl)butanoic acid] | 6.00 to 7.00 |
| C[C@@H](CC(=O)O)c1ccc(OCc2ccc3c(-c4ccc(O)c(O)c4)nn(C4CCCC4)c3c2)cc1 [Compound 38] | < 6.00 |
| C[C@@H](CC(=O)O)c1ccc(OCc2ccc3c(-c4ccc(O)c([N+](=O)[O-])c4)nn(C4CCCC4)c3c2)cc1 [Compound 37, (S)-3-(4-((1-cyclopentyl-3-(4-hydroxy-3-nitrophenyl)-1H-indazol-6-yl)methoxy)phenyl)butanoic acid] | < 6.00 |

same assay, conditions: Table 4, IC50 class, calcium signal induced by 2.5 nM chemerin-9

| Compound | pIC50 |
| --- | --- |
| C[C@@H](CC(=O)O)c1ccc(OCc2cc(F)c3c(-c4cc(Cl)c(O)c(Cl)c4)nn(C4CCCC4)c3c2)cc1 [Compound 69, (S)-3-(4-((1-cyclopentyl-3-(3,5-dichloro-4-hydroxyphenyl)-4-fluoro-1H-indazol-6-yl)methoxy)phenyl)butanoic acid] | > 7.00 |
| C[C@@H](CC(=O)O)c1ccc(OCc2ccc3c(-c4cccc(CO)c4)nn(C4CCCC4)c3c2)cc1 [Compound 54, (S)-3-(4-((1-cyclopentyl-3-(3-(hydroxymethyl)phenyl)-1H-indazol-6-yl)methoxy)phenyl)butanoic acid] | < 6.00 |
| CC(CC(=O)O)c1ccc(OCc2cnc3c(-c4ccc(O)cc4)nn(C4CCCC4)c3c2)cc1 (stereo not drawn) [Compound 72, 3-(4-((1-cyclopentyl-3-(4-hydroxyphenyl)-1H-pyrazolo[4,3-b]pyridin-6-yl)methoxy)phenyl)butanoic acid] | 6.00 to 7.00 |
| Cc1cc(-c2nn(C3CCCC3)c3cc(COc4ccc([C@@H](C)CC(=O)O)cc4)ccc23)cc(C)c1O [Compound 53, (S)-3-(4-((1-cyclopentyl-3-(4-hydroxy-3,5-dimethylphenyl)-1H-indazol-6-yl)methoxy)phenyl)butanoic acid] | 6.00 to 7.00 |
| C[C@@H](CC(=O)O)c1ccc(OCc2ccc3c(-c4ccc(C(=O)O)cc4F)nn(C4CCCC4)c3c2)cc1 [Compound 52, (S)-4-(6-((4-(1-carboxypropan-2-yl)phenoxy)methyl)-1-cyclopentyl-1H-indazol-3-yl)-3-fluorobenzoic acid] | 6.00 to 7.00 |

same assay, conditions: read-out: CMKLR1 activity in CHO cells (% inhibition at 10 µM), 10 µM compound, relative to calcium signal induced by 2.5 nM chemerin-9

| Compound | inhibition at 10 µM |
| --- | --- |
| CC(CC(=O)O)c1ccc(OCc2ccc3c(-c4ccccc4)nn(Cc4ccccc4)c3c2)cc1 (stereo not drawn) [Compound 85] | 23% |
